Assay results from PubChem BioAssay AID1963860 (Molecular Pharmacology Branch, DTP, NCI, 2024).
Values joined by “and” are separate entries in the source; they are usually repeats but may differ in a detail not shown here. Identical values can stand only once.

System: CN0375-F725-PDC KRAS spheroid viability
Test: Anticancer human tumor CN0375-F725-PDC patient-derived colon carcinoma cell line growth inhibition [KRAS2]
Details: spheroids with HUVEC and MSC; for viability, T/C: stronger effect = lower value; active means viability on the fitted dose curve at most 10% of control; inactive means the rest
Source text: Multicellular complex tumor spheroid response to RAS pathway inhibitors in combination with a targeted agents in patient-derived cell lines with oncogenic KRAS variants from multiple cancer types
A high-throughput screen of multi-cell type tumor spheroids was designed to identify active combinations of targeted small molecules and KRAS pathway inhibitors. Complex spheroids include a stromal component modeled by human endothelial cells (HUVEC) and fibroblasts modeled by human mesenchymal stem cells (MSCs). The concentration ranges selected for each drug and investigational agent were based upon clinically achievable concentrations if the clinical Cmax of the agent was known.
Compounds. The drugs and investigational agents: BI-3406 (NSC825286), BAY-293 (NSC824723), batoprotafib (TNO155; NSC825523), sotorasib (AMG 510; NSC818433), MRTX1257 (NSC819558), elimusertib (BAY 1895344; NSC800525), molibresib (GSK525762; NSC774829), temuterkib (LY3214996; NSC803410), venetoclax (NSC766270), alisertib (NSC759677), olaparib (NSC753686), talazoparib (NSC767125), erdafitinib (NSC781556), ipatasertib (NSC767898), cabozantinib (NSC761068), nintedanib (NSC756659), abemaciclib (NSC768073), docetaxel (NSC628503), trametinib (NSC758246), and sapanisertib (NSC764658) were obtained from the National Cancer Institute (NCI) Developmental Therapeutics Program Chemical Repository. The FDA-approved anticancer drug set is available from the Developmental Therapeutics Program. […] The stock solutions were prepared in dimethyl sulfoxide (DMSO, Sigma-Aldrich, St. Louis, MO, cat. D2650) at 800-fold the tested concentration and stored at -70 degrees C prior to their use. All drugs and investigational agents were tested over a range starting from a high concentration at or near the clinical Cmax and decreasing in half-log increments. If the clinical Cmax for an agent had not been determined, the highest concentration tested was 10 microM.
Cell Culture. All cells were maintained in an incubator at 37 degrees C and 5% CO2 with 95% humidity. The PDC lines were cultured according to standard operating procedures established by the NCI PDMR (https://pdmr.cancer.gov/sops/default.htm). Briefly, all PDCs were thawed and cultured in Matrigel-coated flasks prepared with a working solution of 1X Ham's F-12 nutrient mix, without supplementation (Invitrogen, Waltham, MA, cat. 11765054), 100 U/mL penicillin-streptomycin (Invitrogen, cat. 15140122), and 2.5% Matrigel (Corning Inc., Corning, NY, cat. 354248) for the first three passages. All PDCs were cultured in complete DMEM/F-12 media containing advanced DMEM/F-12 (Invitrogen, cat. 12634028), 4.9% defined fetal bovine serum, heat inactivated (HyClone Laboratories Inc., Logan, UT, cat. SH30070.03HI), 389 ng/mL hydrocortisone (Sigma-Aldrich, cat. H4001), 9.7 ng/mL human EGF recombinant protein (Invitrogen, cat. PHG0313), 23.4 microg/mL adenine (Sigma-Aldrich, cat. A2786), 97.3 U/mL penicillin-streptomycin (Invitrogen, cat. 15140122), 1.9 mM L-glutamine (Invitrogen, cat. 25030081), and 9.7 microM Y-27632 dihydrochloride (Tocris Bioscience, Bristol, United Kingdom, cat. 1254). The PDCs were cultured in complete DMEM/F12 media without 9.7 microM Y-27632 dihydrochloride for at least two passages prior to the screen. The established cell line HOP-62 was cultured in RPMI 1640 medium, HEPES (Invitrogen, cat. 22400105) with 10% defined fetal bovine serum (HyClone Laboratories Inc., cat. SH30070.03) and 2 mM L-glutamine (Invitrogen, cat. 25030081). The pooled donor HUVEC were cultured in endothelial cell growth medium 2 (PromoCell, Heidelberg, Germany, cat. C-22011) and the hMSC were cultured in mesenchymal stem cell growth medium 2 (PromoCell, cat. C-28009). For all experiments, HUVEC and hMSC were used at passages </=5, while the malignant cell lines were used at passages </=15. […]

[1] = curve of first compound, second compound 0.1 µM
[2] = curve of first compound, second compound 0.316 µM
[3] = curve of first compound, second compound 1 µM
[4] = curve of first compound, second compound 3.16 µM
[5] = curve of first compound, second compound 10 µM
[6] = second compound 0.1 µM, first compound 0.00316 µM
[7] = second compound 0.1 µM, first compound 0.01 µM
[8] = second compound 0.1 µM, first compound 0.0316 µM
[9] = second compound 0.1 µM, first compound 0.1 µM
[10] = second compound 0.316 µM, first compound 0.00316 µM
[11] = second compound 0.316 µM, first compound 0.01 µM
[12] = second compound 0.316 µM, first compound 0.0316 µM
[13] = second compound 0.316 µM, first compound 0.1 µM
[14] = second compound 1 µM, first compound 0.00316 µM
[15] = second compound 1 µM, first compound 0.01 µM
[16] = second compound 1 µM, first compound 0.0316 µM
[17] = second compound 1 µM, first compound 0.1 µM
[18] = second compound 3.16 µM, first compound 0.00316 µM
[19] = second compound 3.16 µM, first compound 0.01 µM
[20] = second compound 3.16 µM, first compound 0.0316 µM
[21] = second compound 3.16 µM, first compound 0.1 µM
[22] = second compound 10 µM, first compound 0.00316 µM
[23] = second compound 10 µM, first compound 0.01 µM
[24] = second compound 10 µM, first compound 0.0316 µM
[25] = second compound 10 µM, first compound 0.1 µM
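Further: spheroids exposed to agents for 7 days.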

CC(C)n1nc(-c2ccc3oc(N)nc3c2)c2c(N)ncnc21 + CNCc1ccccc1-c1csc(C(C)Nc2nc(C)nc3cc(OC)c(OC)cc23)c1
1.13 nM: IC50 [3]
< 0.316 nM: IC50 [4] | IC50 [5]
54 nM: IC50 [2]
active: viability, T/C (second compound 3.16 µM, first compound 0.000316 µM) 0.35% | viability, T/C (second compound 3.16 µM, first compound 0.001 µM) 0.36% | viability, T/C [18] 0.33% | viability, T/C [19] 0.28% | viability, T/C [20] 0.52% | viability, T/C [21] 0.44% | viability, T/C (second compound 10 µM, first compound 0.000316 µM) 0.13% | viability, T/C (second compound 10 µM, first compound 0.001 µM) 0.17% | viability, T/C [22] 0.14% | viability, T/C [23] 0.15% | viability, T/C [24] 0.18% | viability, T/C [25] 0.21%
inactive: viability, T/C (second compound 0.1 µM, first compound 0.000316 µM) 99.7% | viability, T/C (second compound 0.1 µM, first compound 0.001 µM) 93.1% | viability, T/C [6] 80% | viability, T/C [7] 67% | viability, T/C [8] 55.3% | viability, T/C [9] 45.4% | viability, T/C (second compound 0.316 µM, first compound 0.000316 µM) 91.1% | viability, T/C (second compound 0.316 µM, first compound 0.001 µM) 83.9% | viability, T/C [10] 78.5% | viability, T/C [11] 67% | viability, T/C [12] 55.9% | viability, T/C [13] 43.2% | viability, T/C (second compound 1 µM, first compound 0.000316 µM) 66.2% | viability, T/C (second compound 1 µM, first compound 0.001 µM) 49.4% | viability, T/C [14] 37.8% | viability, T/C [15] 47.7% | viability, T/C [16] 37.9% | viability, T/C [17] 29%
58 nM: IC50 [1]

CCN1CCN(Cc2ccc(Nc3ncc(F)c(-c4cc(F)c5nc(C)n(C(C)C)c5c4)n3)nc2)CC1 + COc1cc2nc(C)nc(NC(C)c3cc(N)cc(C(F)(F)F)c3)c2cc1OC1CCOC1
> 1000 nM: IC50 [1] | IC50 [2] | IC50 [3] | IC50 [4]
< 3.16 nM: IC50 [5]
inactive: viability, T/C [6] 96.4% | viability, T/C [7] 89.7% | viability, T/C [8] 81.9% | viability, T/C [9] 88.1% | viability, T/C (second compound 0.1 µM, first compound 0.316 µM) 90.7% | viability, T/C (second compound 0.1 µM, first compound 1 µM) 94.7% | viability, T/C [10] 93% | viability, T/C [11] 91.2% | viability, T/C [12] 79.2% | viability, T/C [13] 82% | viability, T/C (second compound 0.316 µM, first compound 0.316 µM) 92.8% | viability, T/C (second compound 0.316 µM, first compound 1 µM) 78% | viability, T/C [14] 91.1% | viability, T/C [15] 85.3% | viability, T/C [16] 79.3% | viability, T/C [17] 81.6% | viability, T/C (second compound 1 µM, first compound 0.316 µM) 86.5% | viability, T/C (second compound 1 µM, first compound 1 µM) 83% | viability, T/C [18] 84.3% | viability, T/C [19] 79.9% | viability, T/C [20] 71.3% | viability, T/C [21] 70.7% | viability, T/C (second compound 3.16 µM, first compound 0.316 µM) 71.7% | viability, T/C (second compound 3.16 µM, first compound 1 µM) 49.5% | viability, T/C [22] 14.6% | viability, T/C [23] 14.5% | viability, T/C [24] 13.4%
active: viability, T/C [25] 15.4% | viability, T/C (second compound 10 µM, first compound 0.316 µM) 6.49% | viability, T/C (second compound 10 µM, first compound 1 µM) 0.9%

CC1(C)CCC(CN2CCN(c3ccc(C(=O)NS(=O)(=O)c4ccc(NCC5CCOCC5)c([N+](=O)[O-])c4)c(Oc4cnc5[nH]ccc5c4)c3)CC2)=C(c2ccc(Cl)cc2)C1
inactive: viability, T/C (compound 0.0316 µM) 106% [middle of 5 runs] | viability, T/C (compound 0.1 µM) 102% [middle of 5 runs] | viability, T/C (compound 0.316 µM) 106% (3×) and 95.8% and 104% | viability, T/C (compound 1 µM) 104% [middle of 5 runs] | viability, T/C (compound 3.16 µM) 67.7% [middle of 5 runs]

COc1cc(Nc2ncc3c(n2)-c2ccc(Cl)cc2C(c2c(F)cccc2OC)=NC3)ccc1C(=O)O
> 10000 nM: IC50 (curve of compound)
inactive: viability, T/C (compound 0.0316 µM) 102% [middle of 5 runs] | viability, T/C (compound 0.1 µM) 101% [middle of 5 runs] | viability, T/C (compound 0.316 µM) 93.7% [middle of 5 runs] | viability, T/C (compound 1 µM) 96.3% [middle of 5 runs] | viability, T/C (compound 3.16 µM) 94.8% [middle of 5 runs] | viability, T/C (compound 10 µM) 78.3% [middle of 5 runs]

CC(C)n1nc(-c2ccc3oc(N)nc3c2)c2c(N)ncnc21
64.7 nM [middle of 5 runs]: IC50 (curve of compound)
inactive: viability, T/C (compound 0.000316 µM) 97.5% [middle of 5 runs] | viability, T/C (compound 0.001 µM) 93.1% [middle of 5 runs] | viability, T/C (compound 0.00316 µM) 79% [middle of 5 runs] | viability, T/C (compound 0.01 µM) 70.7% [middle of 5 runs] | viability, T/C (compound 0.0316 µM) 55.5% [middle of 5 runs] | viability, T/C (compound 0.1 µM) 45.2% [middle of 5 runs]
